In US20260297081A1, “COMPOUNDS AND METHODS OF TREATING CANCERS” (Cullgen Inc., priority 2023, published 2026):

Molecular target: CDK4 (Homo sapiens, UniProt P11802+Q16531)
Experiment: HiBiT detection of HiBiT-tagged CDK4 protein level in MCF7 cells, 16 hours (Table 8)
Assay type: cell-based
Parameters: expressed in transfected cells; host or cells: MCF7
Conditions: MCF7 cells stably expressing HiBiT tagged target proteins; for activity at 0.01 µM: 10 nM, read-out: % CDK4 Relative Level (10 nM); for activity at 0.1 µM: 100 nM, read-out: % CDK4 Relative Level (100 nM)
Protocol: HiBiT detection system quantitatively measures total amounts of HiBiT-tagged proteins using a luminescent based method. MCF7 cells stably expressing HiBiT tagged target proteins were treated with heterobifunctional compounds at indicated concentrations for 16 hours, then lysed with Nano-Glo HiBiT Lytic detection reagents.

Sequence of CDK4 (P11802 whole entry): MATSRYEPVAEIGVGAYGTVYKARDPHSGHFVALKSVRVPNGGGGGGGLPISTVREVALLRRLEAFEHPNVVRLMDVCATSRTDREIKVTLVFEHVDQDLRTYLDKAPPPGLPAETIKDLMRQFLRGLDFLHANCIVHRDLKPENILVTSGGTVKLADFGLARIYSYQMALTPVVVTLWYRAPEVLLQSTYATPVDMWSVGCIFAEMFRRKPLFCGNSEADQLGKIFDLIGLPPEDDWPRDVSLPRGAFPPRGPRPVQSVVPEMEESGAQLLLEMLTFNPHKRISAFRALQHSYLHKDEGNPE
Sequence of CDK4 (P24385 whole entry partner): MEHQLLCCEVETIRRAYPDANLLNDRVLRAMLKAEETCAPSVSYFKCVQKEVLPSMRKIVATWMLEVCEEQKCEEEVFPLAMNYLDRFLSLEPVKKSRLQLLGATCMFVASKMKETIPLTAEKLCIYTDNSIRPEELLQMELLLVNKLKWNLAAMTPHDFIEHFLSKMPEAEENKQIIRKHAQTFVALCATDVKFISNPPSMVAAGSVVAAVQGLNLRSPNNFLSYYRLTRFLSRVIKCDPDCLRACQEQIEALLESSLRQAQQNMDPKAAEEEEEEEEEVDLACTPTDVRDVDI
Sequence of CDK4 (Q16531 2-1140 limits assumed): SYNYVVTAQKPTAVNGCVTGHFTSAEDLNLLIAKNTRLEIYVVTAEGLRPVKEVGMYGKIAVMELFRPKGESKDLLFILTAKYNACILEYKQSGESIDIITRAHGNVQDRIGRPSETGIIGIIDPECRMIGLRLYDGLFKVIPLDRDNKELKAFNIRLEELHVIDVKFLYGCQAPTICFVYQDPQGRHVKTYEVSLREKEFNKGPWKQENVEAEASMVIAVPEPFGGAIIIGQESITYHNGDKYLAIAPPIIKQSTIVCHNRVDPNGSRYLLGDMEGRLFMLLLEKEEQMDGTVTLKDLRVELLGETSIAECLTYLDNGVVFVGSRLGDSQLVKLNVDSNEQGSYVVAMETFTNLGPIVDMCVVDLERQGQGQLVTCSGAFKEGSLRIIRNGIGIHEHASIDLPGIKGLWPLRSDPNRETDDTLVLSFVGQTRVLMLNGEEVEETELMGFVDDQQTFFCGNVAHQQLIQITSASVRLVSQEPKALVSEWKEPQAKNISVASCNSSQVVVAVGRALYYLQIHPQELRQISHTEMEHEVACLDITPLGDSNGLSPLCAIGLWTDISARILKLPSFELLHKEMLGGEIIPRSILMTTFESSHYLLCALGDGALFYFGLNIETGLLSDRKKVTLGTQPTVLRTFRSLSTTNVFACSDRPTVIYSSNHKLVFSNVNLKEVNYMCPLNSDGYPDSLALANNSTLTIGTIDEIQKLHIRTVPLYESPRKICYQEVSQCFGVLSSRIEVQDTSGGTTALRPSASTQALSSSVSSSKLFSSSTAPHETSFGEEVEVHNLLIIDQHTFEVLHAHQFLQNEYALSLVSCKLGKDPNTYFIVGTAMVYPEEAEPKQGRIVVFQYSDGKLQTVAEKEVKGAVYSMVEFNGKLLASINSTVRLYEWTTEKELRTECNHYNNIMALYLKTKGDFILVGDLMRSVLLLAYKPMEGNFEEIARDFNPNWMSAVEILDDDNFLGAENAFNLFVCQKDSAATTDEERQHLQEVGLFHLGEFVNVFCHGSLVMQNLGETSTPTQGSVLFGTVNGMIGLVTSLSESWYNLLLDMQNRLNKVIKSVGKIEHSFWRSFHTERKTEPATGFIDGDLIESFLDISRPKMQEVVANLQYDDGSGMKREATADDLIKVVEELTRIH

activity at 0.01 µM	activity at 0.1 µM	Structure (SMILES)
> 85%	> 85%	CNc1ccc(C(=O)Nc2ccc(N(C)C)nn2)c(NCCCCCNC(=O)CN2CCN(c3ccc(Nc4ncc(F)c(-c5cc(F)c6nc(C)n(C(C)C)c6c5)n4)nc3)CC2)n1 [CPD-661, N-(6-(dimethylamino)pyridazin-3-yl)-2-((5-(2-(4-(6-((5-fluoro-4-(4-fluoro-1-isopropyl-2-methyl-1H-benzo[d]imidazol-6-yl)pyrimidin-2-yl)amino)pyridin-3-yl)piperazin-1-yl)acetamido)pentyl)amino)-6-(methylamino)nicotinamide]
> 85%	> 85%	CNc1ccc(C(=O)Nc2ccc(N(C)C)nn2)c(NCCCCNC(=O)CN2CCN(c3ccc(Nc4ncc(F)c(-c5cc(F)c6nc(C)n(C(C)C)c6c5)n4)nc3)CC2)n1 [CPD-660, N-(6-(dimethylamino)pyridazin-3-yl)-2-((4-(2-(4-(6-((5-fluoro-4-(4-fluoro-1-isopropyl-2-methyl-1H-benzo[d]imidazol-6-yl)pyrimidin-2-yl)amino)pyridin-3-yl)piperazin-1-yl)acetamido)butyl)amino)-6-(methylamino)nicotinamide]
> 85%	> 85%	CNc1ccc(C(=O)Nc2ccc(N(C)C)nn2)c(NCCCCCNC(=O)CN2CCN(Cc3ccc(Nc4ncc(F)c(-c5cc(F)c6nc(C)n(C(C)C)c6c5)n4)nc3)CC2)n1 [CPD-611, N-(6-(dimethylamino)pyridazin-3-yl)-2-((5-(2-(4-((6-((5-fluoro-4-(4-fluoro-1-isopropyl-2-methyl-1H-benzo[d]imidazol-6-yl)pyrimidin-2-yl)amino)pyridin-3-yl)methyl)piperazin-1-yl)acetamido)pentyl)amino)-6-(methylamino)nicotinamide]
> 85%	> 85%	CNc1ccc(C(=O)Nc2ccc(N(C)C)nn2)c(NCCCCCCCC(=O)N2CCN(Cc3ccc(Nc4ncc(F)c(-c5cc(F)c6nc(C)n(C(C)C)c6c5)n4)nc3)CC2)n1 [CPD-605, N-(6-(dimethylamino)pyridazin-3-yl)-2-((8-(4-((6-((5-fluoro-4-(4-fluoro-1-isopropyl-2-methyl-1H-benzo[d]imidazol-6-yl)pyrimidin-2-yl)amino)pyridin-3-yl)methyl)piperazin-1-yl)-8-oxooctyl)amino)-6-(methylamino)nicotinamide]
> 85%	> 85%	CNc1ccc(C(=O)Nc2ccc(N(C)C)nn2)c(NCCCCNC(=O)CN2CCN(Cc3ccc(Nc4ncc(F)c(-c5cc(F)c6nc(C)n(C(C)C)c6c5)n4)nc3)CC2)n1 [CPD-610, N-(6-(dimethylamino)pyridazin-3-yl)-2-((4-(2-(4-((6-((5-fluoro-4-(4-fluoro-1-isopropyl-2-methyl-1H-benzo[d]imidazol-6-yl)pyrimidin-2-yl)amino)pyridin-3-yl)methyl)piperazin-1-yl)acetamido)butyl)amino)-6-(methylamino)nicotinamide]
> 85%	> 85%	CNc1ccc(C(=O)Nc2ccc(N(C)C)nn2)c(NCCCCCCNC(=O)CN2CCN(Cc3ccc(Nc4ncc(F)c(-c5cc(F)c6nc(C)n(C(C)C)c6c5)n4)nc3)CC2)n1 [CPD-612, N-(6-(dimethylamino)pyridazin-3-yl)-2-((6-(2-(4-((6-((5-fluoro-4-(4-fluoro-1-isopropyl-2-methyl-1H-benzo[d]imidazol-6-yl)pyrimidin-2-yl)amino)pyridin-3-yl)methyl)piperazin-1-yl)acetamido)hexyl)amino)-6-(methylamino)nicotinamide]
> 85%	> 85%	CNc1ccc(C(=O)Nc2ccc(N(C)C)nn2)c(NCCOCCNC(=O)CN2CCN(c3ccc(Nc4ncc5cc6n(c5n4)C4(CCCCC4)CNC6=O)nc3)CC2)n1 [CPD-647, N-(6-(dimethylamino)pyridazin-3-yl)-6-(methylamino)-2-((2-(2-(2-(4-(6-((6′-oxo-7′,8′-dihydro-6′H-spiro[cyclohexane-1,9′-pyrazino[1′,2′:1,5]pyrrolo[2,3-d]pyrimidin]-2′-yl)amino)pyridin-3-yl)piperazin-1-yl)acetamido)ethoxy)ethyl)amino)nicotinamide]
